Test results reported in PMC5805707 (Scientific Reports, 2018).
pIC50: −log10 of the molar value.

Target: T1, cytochrome bd (Mycobacterium tuberculosis, UniProt L7N662)
T1 construct: gene cydA; native complex in inverted membrane vesicles of strain mc^2 6020
Assay: NADH-driven oxygen consumption of inverted membrane vesicles (Clark electrode); maximal inhibition […]
Type: biochemical

T1 sequence (O06139 entry or part of it): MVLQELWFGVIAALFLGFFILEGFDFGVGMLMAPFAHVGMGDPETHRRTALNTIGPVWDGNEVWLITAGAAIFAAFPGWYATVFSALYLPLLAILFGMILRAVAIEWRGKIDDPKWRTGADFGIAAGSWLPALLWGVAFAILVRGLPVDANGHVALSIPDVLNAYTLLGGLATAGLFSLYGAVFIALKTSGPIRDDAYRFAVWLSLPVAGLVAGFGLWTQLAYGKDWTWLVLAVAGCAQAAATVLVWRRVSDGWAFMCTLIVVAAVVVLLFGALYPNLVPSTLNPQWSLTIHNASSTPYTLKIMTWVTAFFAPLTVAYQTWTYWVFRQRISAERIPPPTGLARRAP
T1 sequence (L7N662 entry or part of it): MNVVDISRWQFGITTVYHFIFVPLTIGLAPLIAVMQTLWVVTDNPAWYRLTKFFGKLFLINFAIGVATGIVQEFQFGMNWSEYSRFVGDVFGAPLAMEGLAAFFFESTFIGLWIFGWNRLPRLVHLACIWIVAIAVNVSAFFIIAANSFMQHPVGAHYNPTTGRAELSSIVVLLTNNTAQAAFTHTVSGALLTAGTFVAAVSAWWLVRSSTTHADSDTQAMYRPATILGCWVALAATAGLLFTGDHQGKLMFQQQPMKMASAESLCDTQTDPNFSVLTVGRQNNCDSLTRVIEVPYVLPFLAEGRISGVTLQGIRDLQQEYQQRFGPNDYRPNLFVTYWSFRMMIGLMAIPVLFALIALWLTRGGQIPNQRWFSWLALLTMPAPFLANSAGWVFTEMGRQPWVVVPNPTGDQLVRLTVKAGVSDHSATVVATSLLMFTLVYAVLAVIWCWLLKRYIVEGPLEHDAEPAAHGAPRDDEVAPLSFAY

In the case of `CC(C)=CCC/C(C)=C/CC/C(C)=C/Cc1c(C)[nH]c2ccccc2c1=O` [aurachin D], the pIC50 was ~6.40.
